The source of these data is patent US6916905B2, “Dmt-Tic di-and tri-peptidic derivatives and related compositions and methods of use” (The United States of America as represented by the …, priority 2000, dated 2005).

The target of experiment [1] is T1, δ receptors (Rattus norvegicus, UniProt P33533).
T1 construct: assayed with a rat brain synaptosomal preparation (P2); from tissue; host or cells: rat brain P2 synaptosomes
Description: Radio-receptor competition assay, rat brain synaptosomes, [3H]DPDPE (Example 74). The class given is binding. The procedure: (§1) After 120 min incubation at room temperature (23-24° C.), the samples were rapidly filtered through Whatman GF/C glass fiber filers and washed three times with 2 ml ice-cold 0.05 M Tris, pH 7.4-7.5, containing 0.1% BSA. Presoaking filters in 0.1% polyethylenimine is only required in assays with peptides carrying an overall positive charge, such as dynorphin or nociceptin (Guerrini et al., J. Med. Chem., 40: 1789-1793 (1997)). Non-specific binding was determined using 2 μM unlabeled DPDPE or DAGO for δ or μ assays, respectively. The Ki data, determined according to Cheng and Prusoff (Cheng et al., Biochem. Pharmacol., 22: 3099-3108 (1973)), represent the means±SE from 3 or more independent assays using at least 3 different synaptosome preparations and testing the analogues with 5-8 graded dosages over 2-3 orders of magnitude in concentration.

In experiment [2] the target is T2, μ receptors (Rattus norvegicus, UniProt P33535).
T2 construct: assayed with a rat brain synaptosomal preparation (P2); from tissue; host or cells: rat brain P2 synaptosomes
Description: Radio-receptor competition assay, rat brain synaptosomes, [3H]DAGO (Example 74). It is filed as binding. The settings on record: rat brain P2 synaptosomes, [3H]DAGO. The procedure:
as §1

The target of experiment [3] is μ receptors (Cavia porcellus, UniProt P97266). Description: GPI functional pharmacological bioassay (Example 75). Also on record: species or system guinea pig. The settings on record: μ agonism. The procedure:
The in vitro pharmacological assays used a single MVD for δ receptors and a 2- to 3-cm segment of GPI for μ receptors with each suspended in 20 ml organ baths containing balanced salt solutions in a physiological buffer (Salvadori et al., Mol. Med., 1: 678-689 (1995)). […] Data were obtained from 4 independent assays and tissue samples. Agonism is expressed as the IC50 (nM) value and antagonism as pA2 (Labarre et al., Eur. J. Pharm., 406: R1-R3 92000)).

Experiment [4] has as its target δ receptors (Mus musculus, UniProt P32300). Put plainly: MVD functional pharmacological bioassay (Example 75). Also on record: A single MVD was suspended in 4 ml modified Kreb's solution; from tissue; host or cells: mouse vas deferens.

“Also recorded” adds a separate entry of the source. Like-named read-outs stand apart in the source and are kept apart here. Non-standard residues stand in square brackets, D forms with d. Residues, ends and D or L forms follow the SMILES beside them. *: point of attachment. Dmt = Cc1cc(O)cc(C)c1C[C@H](N)C(=O)O; Tic = O=C(O)[C@@H]1Cc2ccccc2CN1; NHPh = c1ccc(N*)cc1

Chain of δ receptors (Mus musculus, UniProt P32300) (P32300 whole entry): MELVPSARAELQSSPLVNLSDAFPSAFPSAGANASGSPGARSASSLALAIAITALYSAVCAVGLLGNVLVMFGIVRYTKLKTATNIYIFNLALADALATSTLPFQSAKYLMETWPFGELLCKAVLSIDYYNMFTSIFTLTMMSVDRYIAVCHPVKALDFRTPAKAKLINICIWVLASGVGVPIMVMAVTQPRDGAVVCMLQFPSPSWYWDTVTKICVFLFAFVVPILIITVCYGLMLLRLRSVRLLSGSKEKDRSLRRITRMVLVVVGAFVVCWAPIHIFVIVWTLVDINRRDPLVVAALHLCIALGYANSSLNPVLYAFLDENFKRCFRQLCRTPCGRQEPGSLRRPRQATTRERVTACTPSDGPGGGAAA
T1 sequence (P33533 whole entry): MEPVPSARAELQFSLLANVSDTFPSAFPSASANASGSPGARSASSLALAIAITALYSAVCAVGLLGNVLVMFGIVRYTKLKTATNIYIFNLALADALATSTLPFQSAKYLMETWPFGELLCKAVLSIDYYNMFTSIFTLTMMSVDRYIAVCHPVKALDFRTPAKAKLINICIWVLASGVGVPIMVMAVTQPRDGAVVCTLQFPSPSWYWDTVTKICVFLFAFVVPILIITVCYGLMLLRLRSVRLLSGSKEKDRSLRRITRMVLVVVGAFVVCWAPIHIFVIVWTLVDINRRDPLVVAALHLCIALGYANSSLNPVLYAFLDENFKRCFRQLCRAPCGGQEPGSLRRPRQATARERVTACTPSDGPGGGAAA
T2 sequence (P33535 whole entry): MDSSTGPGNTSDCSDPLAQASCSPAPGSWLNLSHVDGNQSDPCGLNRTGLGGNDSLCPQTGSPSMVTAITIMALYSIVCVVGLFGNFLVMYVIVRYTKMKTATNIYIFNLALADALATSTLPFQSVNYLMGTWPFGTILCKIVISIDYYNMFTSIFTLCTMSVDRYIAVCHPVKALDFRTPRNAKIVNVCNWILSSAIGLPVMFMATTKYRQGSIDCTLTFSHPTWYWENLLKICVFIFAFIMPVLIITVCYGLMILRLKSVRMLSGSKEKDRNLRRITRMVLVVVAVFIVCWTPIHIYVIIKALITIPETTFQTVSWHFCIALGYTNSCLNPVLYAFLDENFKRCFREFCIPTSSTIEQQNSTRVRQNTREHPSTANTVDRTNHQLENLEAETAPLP
Chain of μ receptors (Cavia porcellus, UniProt P97266) (P97266 whole entry, looked up): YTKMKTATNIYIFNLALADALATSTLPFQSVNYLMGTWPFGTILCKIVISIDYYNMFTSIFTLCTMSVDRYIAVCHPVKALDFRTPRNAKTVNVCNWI

Usually EC50 stands for the midpoint of the concentration-response curve. A higher EC50 goes with weaker potency. As to `Cc1cc(O)cc(C)c1C[C@H](N)C(=O)N1Cc2ccccc2C[C@H]1C(=O)NCC(=O)Nc1ccccc1` [Compound 27, H-Dmt-Tic-Gly-NH-Ph] (H-[Dmt]-[Tic]-Gly-NHPh), the Ki was 0.042 nM at δ receptors [1] (rat brain P2 synaptosomes, [3H]DPDPE, read-out: Receptor affinity (nM) Kiδ); below 1 nM at μ receptors [2] (Receptor affinity (nM) Kiμ); 0.16 nM on μ receptors [2] (read-out: Receptor affinity (nM) Kiμ). The compound further returned a μ/δ at δ receptors [1] (selectivity Kiμ/Kiδ) of 3.6. The “Functional Bioactivity GPI (pEC50)” value on μ receptors [3] was 8.59. Moreover, the midpoint of the response at δ receptors [4], the EC50, lay at 3.02 nM. Also, at δ receptors [4], the “δ activity on MVD, in words” value was “potent δ-agonist activity; also recorded: essentially equivalent activity as a δ agonist and a μ agonist”. On δ receptors [4] (MVD), the “lower antagonist activity of N,N(Me)2-Dmt-Tic-OH against this agonist than against deltorphin C and 24” value came out at 5 fold. Besides, the “MVD, antagonist activity (pA2) N,N(CH3)2-Dmt-Tic-OH” value at δ receptors [4] (pA2 of N,N(CH3)2-Dmt-Tic-OH against the listed δ agonist) came out at 9.04. The “MVD, antagonist activity (pA2) naloxone” value at δ receptors [4] (pA2 of naloxone against the listed δ agonist) is on record as 7.47.
